{"source": "patent US9441017B2", "about": "“Water-soluble polypeptides comprised of repeat modules, method for preparing the same and method for a target-specific polypeptide and analysis of biological activity thereof” (priority 2011, dated 2016)", "key": {"[1]": {"conditions": "reported, Akashi et al. 2003; read-out: binding affinity (Kd) for LPS; cited from earlier work"}, "[2]": {"system": "LPS signal transduction in differentiated THP-1 cells", "assay": "TNF-α secretion of LPS-treated, PMA-differentiated THP-1 cells by ELISA", "assay_type": "cell-based, human", "conditions": "differentiated THP-1, 20 ng/ml LPS, 6 hours", "description": "First, THP-1 monocyte (TIB-202TM, ATCC) was cultured in RPMI containing 10% FBS (Fetal Bovine Serum) and 50 µM 2-mercaptoethanol at 37° C. and 5% CO2. When cell density reached 90%, they were washed with a DPBS buffer solution (pH 7.4). Then, to increase the sensitivity to LPS, the cells were suspended in a medium supplemented with 200 nM PMA (phorbol 12-myristate-13-acetate), and aliquoted to a 96-well plate in a density of 2.5×10^4/well, followed by incubation for 72 hours at 37° C. and 5% CO2 for differentiation.\nPrior to the experiment, 10 μg/ml of InlB-VLR and MD-2-added RPMI medium, and 10 μg/ml of MD-2 and 10 μg/ml of IVLR-added medium, 10 μg/ml of TV3-added medium, and 10 μg/ml of TV-3 and MD-2-added medium as control groups were prepared and left at 37° C. for 1 hour. Then, THP-1 differentiated into macrophage by PMA was washed with DPBS buffer solution (pH 7.4) three times, and the sample-containing RPMI media were treated with 20 ng/ml of LPS and THP-1, followed by incubation at 37° C. and 5% CO2 for 6 hours. After 6 hours, a predetermined amount of culture was taken from each well, and diluted 4-8 fold using DPBS buffer solution (pH 7.4), followed by ELISA (Enzyme-Linked Immunosorbent Assays) for the secreted TNF-α.\nMonocyte THP-1 (TIB-202TM, ATCC) was cultured in RPMI media supplemented with 10% Fetal Bovine Serum (FBS) and 50 µM of 2-mercaptoethanol at 37° C. and 5% CO2. When the cells reached 90% confluence, they were washed with PBS buffer solution (pH 7.4). In order to increase LPS sensitivity, the cells were suspended in RPMI media containing 200 nM of PMA (phorbol 12-myristate-13-acetate), and plated in a 96-well plate at a density of 2.5×10^4 cells/well, and differentiated at 37° C. and 5% CO2 for 72 hours.\nPrior to the experiment, the LPS inhibitor polymyxin B was diluted in RPMI at a concentration of 1-100 μg/ml, and incubated at 37° C. for 1 hour. […] The results were calculated from a standard curve of TNF-α."}, "[3]": {"system": "TLR4/MD-2 receptor activation by LPS", "assay": "NF-κB firefly/Renilla luciferase reporter assay in HEK293/hTLR4A-MD2-CD14 cells", "assay_type": "cell-based, human", "conditions": "HEK293/hTLR4A-MD2-CD14, 10 ng/ml LPS, 6 hours", "description": "In order to monitor activation of TLR4-MD-2 receptor by LPS, an HEK293/hTLR4A-MD2-CD14 cell line (Invivogen) stably expressing TLR4 and MD2, CD14 genes, prepared by introduction of the genes into HEK293 cell, was used. The HEK293/hTLR4A-MD2-CD14 cell line was subcultured in an RPMI medium (Invitrogen) supplemented with 10% Fetal Bovine Serum (FBS) in an incubator at 37° C. and 5% CO2, and then used for the experiment.\nIn the present invention, the LPS inhibitor, polymyxin B (Invivogen) and the LPS antagonist, LPS-RS (Invivogen) were diluted in RPMI media at a concentration of 0.01-100 μg/ml, and reacted with 10 ng/ml of LPS at 37° C. for 1 hour. […]\nFirst, the media were removed from the 24-well plate, and the plate was washed with a PBS buffer solution twice, and then 200 μl of passive lysis buffer (PLB) was added to each well for cell lysis. After 30 minutes, 20 μl of cell lysate was transferred to a new 96 well-plate, and then 100 μl of LAR II reagent containing a substrate of firefly luciferase was added to measure luminescence using a VICTOR X Multilabel Plate Reader (PerkinElmer) for 0.5 seconds. After measurement of firefly luciferase luminescence, 100 μl of STOP & GLO reagent containing a substrate of Renilla luciferase was added to measure Renilla luciferase luminescence for 0.5 second. […]"}}, "note": "Entries after “also recorded” stand apart in the source; their conditions may differ.", "data": [{"substance": "MD-2: Myeloid differentiation protein-2, also called lymphocyte antigen 96, a glycoprotein that binds LPS", "values": [{"measurement": "Kd", "setting": "[1]", "result": 65, "unit": "nM"}, {"measurement": "inhibitory effect on LPS signal transduction (TNF-α secretion)", "setting": "[2]", "result": "weak inhibitory effect"}]}, {"substance": "TLR4/MD-2 complex: complex of Toll-like receptor 4 with MD-2", "values": [{"measurement": "Kd", "setting": "[1]", "result": 3, "unit": "nM"}]}, {"substance": "polymyxin B", "values": [{"measurement": "inhibitory effect on LPS signal transduction (relative firefly luciferase activity)", "setting": "[3]", "result": "relatively reduced luciferase activity; also recorded: relative reduction of firefly luciferase activity"}, {"measurement": "inhibitory effect on LPS signal transduction (TNF-α secretion)", "setting": "[2]", "result": "reduction in TNF-α secretion; also recorded: reduction in LPS signal transduction"}]}, {"substance": "sTLR4: soluble extracellular domain of cell membrane receptor TLR4", "values": [{"measurement": "inhibitory effect on LPS signal transduction (relative firefly luciferase activity)", "setting": "[3]", "result": "no LPS blocking activity"}, {"measurement": "inhibitory effect on LPS signal transduction (TNF-α secretion)", "setting": "[2]", "result": "no LPS blocking activity"}]}]}
